# Like-named read-outs stand apart in the source and are kept apart here. Residues, ends and D or L forms follow the SMILES beside them.
# B1: Ps-K18 (peptide)
# peptide: GLNALKKVFQGIHEAIKKINNHVQ
# notes: source: synthetic peptide (solid-phase, Fmoc; reversed-phase HPLC, purity >95%)
# B2: Pseudin-2 (peptide)
# peptide: GLNALKKVFQGIHEAIKLINNHVQ
# notes: as for B1
# B3: Ps-K14-K18 (peptide)
# peptide: GLNALKKVFQGIHKAIKKINNHVQ
# notes: as for B1
# Assays:
# [1] = system: Acinetobacter baumannii CCARM 12035 (MDRAB 12035); format: cell-based; settings: multidrug-resistant strain; 1% peptone media, 16 h at 37 °C
# Text: (§1) Four Gram-negative bacteria species (Escherichia coli KCTC 1682, Acinetobacter baumannii KCTC 2508, Pseudomonas aeruginosa KCTC 1637 and Salmonella typhimurium KCTC 1926) and three Gram-positive bacteria species (Staphylococcus aureus KCTC 1621, Bacillus subtilis KCTC 3028 and Staphylococcus epidermidis KCTC 1917) were procured from the Korean Collection for Type Cultures (KCTC). Multi-drug-resistant Gram-negative bacteria (Salmonella typhimurium CCARM 8003 and 8007, Escherichia coli CCARM 1229 and 1238, Pseudomonas aeruginosa CCARM 2002 and 2095 and Acinetobacter baumannii CCARM 12035 and 12036) were obtained from the Culture Collection of Antibiotic-Resistant Microbes (CCARM). To determine MICs, bacteria were cultured in Luria-Bertani (LB) medium for overnight at 37 °C. An aliquot of the culture was incubated in 1% peptone media at 37 °C until mid-log phase. 100 μl of serial 2-fold diluted peptides were treated in 96 well plates and added to 100 μl of 2 × 10^6 CFU/ml bacterial suspensions in 1% peptone media for 16 h at 37 °C.
# [2] = system: Acinetobacter baumannii CCARM 12036 (MDRAB 12036); format: cell-based; settings: multidrug-resistant strain; 1% peptone media, 16 h at 37 °C
# Text: as §1
# [3] = system: Acinetobacter baumannii KCTC 2508; format: cell-based
# Text: as §1
# [4] = system: Bacillus subtilis KCTC 3028; format: cell-based
# Text: as §1
# [5] = system: Escherichia coli CCARM 1229 (MDREC 1229); format: cell-based; settings: multidrug-resistant strain; 1% peptone media, 16 h at 37 °C
# Text: as §1
# [6] = system: Escherichia coli CCARM 1238 (MDREC 1238); format: cell-based; settings: multidrug-resistant strain; 1% peptone media, 16 h at 37 °C
# Text: as §1
# [7] = system: Escherichia coli KCTC 1682; format: cell-based
# Text: as §1
# [8] = system: Gram-negative bacteria (E. coli, A. baumannii, P. aeruginosa, S. typhimurium); format: cell-based
# Text: as §1
# [9] = system: Gram-positive bacteria (S. aureus, B. subtilis, S. epidermidis); format: cell-based
# Text: as §1
# [10] = system: Pseudomonas aeruginosa CCARM 2002 (MDRPA 2002); format: cell-based; settings: multidrug-resistant strain; 1% peptone media, 16 h at 37 °C
# Text: as §1
# [11] = system: Pseudomonas aeruginosa CCARM 2095 (MDRPA 2095); format: cell-based; settings: multidrug-resistant strain; 1% peptone media, 16 h at 37 °C
# Text: as §1
# [12] = system: Pseudomonas aeruginosa KCTC 1637; format: cell-based
# Text: as §1
# [13] = system: Salmonella typhimurium CCARM 8003 (MDRST 8003); format: cell-based; settings: multidrug-resistant strain; 1% peptone media, 16 h at 37 °C
# Text: as §1
# [14] = system: Salmonella typhimurium CCARM 8007 (MDRST 8007); format: cell-based; settings: multidrug-resistant strain; 1% peptone media, 16 h at 37 °C
# Text: as §1
# [15] = system: Salmonella typhimurium KCTC 1926; format: cell-based
# Text: as §1
# [16] = system: Staphylococcus aureus KCTC 1621; format: cell-based
# Text: as §1
# [17] = system: Staphylococcus epidermidis KCTC 1917; format: cell-based
# Text: as §1
# [18] = system: human red blood cells (hRBCs); assay: Haemolytic activity; format: cell-based; settings: for haemolysis at 400 μM: 400 μM peptide, 4% hRBCs, PBS, 100% = 0.1% Triton X-100
# Protocol: Peptide-induced lysis of human red blood cells (hRBCs) was determined as follows. Fresh hRBCs were washed 2–3 times with phosphate-buffered saline (PBS) by centrifugation for 5 min at 2500 rpm at 4 °C. Peptides in PBS were incubated with 4% (v/v) hRBCs for 1 h at 37 °C. Samples were then centrifuged for 5 min at 1000 × g. The absorbance of the supernatant at 405 nm was used as a measure of haemolysis. As a positive control, 100% haemolysis was obtained by treating hRBCs with 0.1% Triton X-100.
# [19] = system: S. aureus 3089(R) (MRSA 3089); format: cell-based, Staphylococcus aureus; settings: multidrug-resistant strain; 1% peptone media, 16 h at 37 °C
# [20] = system: S. aureus 3108(R) (MRSA 3108); format: cell-based, Staphylococcus aureus; settings: multidrug-resistant strain; 1% peptone media, 16 h at 37 °C
# [21] = system: S. aureus 3126(R) (MRSA 3126); format: cell-based, Staphylococcus aureus; settings: multidrug-resistant strain; 1% peptone media, 16 h at 37 °C
# [22] = system: mouse macrophage RAW264.7 cells; settings: 50 μM peptide, MTT, 18 h at 37 °C
# [23] = system: mouse bone marrow-derived dendritic cells; settings: 50 μM peptide, MTT, 18 h at 37 °C
# [24] = biological target: T1, rhTLR4 (recombinant human Toll-like receptor 4) (human, UniProt O00206 24-631); assay: BLI; BLItz system (ForteBio); rhTLR4 loaded on a Ni-NTA sensor, various amounts of peptide applied; biosensor hydrated 10 min in PBS; baseline 15 s, loading 60 s, baseline 30 s, association 60 s, dissociation 60 s; settings: both partners purified
# T1 construct: Toll-like receptor 4, recombinant human (rhTLR4), bought; No catalogue number is printed; source: bought: R&D systems, Minneapolis, USA
# T1 sequence (O00206 24-631): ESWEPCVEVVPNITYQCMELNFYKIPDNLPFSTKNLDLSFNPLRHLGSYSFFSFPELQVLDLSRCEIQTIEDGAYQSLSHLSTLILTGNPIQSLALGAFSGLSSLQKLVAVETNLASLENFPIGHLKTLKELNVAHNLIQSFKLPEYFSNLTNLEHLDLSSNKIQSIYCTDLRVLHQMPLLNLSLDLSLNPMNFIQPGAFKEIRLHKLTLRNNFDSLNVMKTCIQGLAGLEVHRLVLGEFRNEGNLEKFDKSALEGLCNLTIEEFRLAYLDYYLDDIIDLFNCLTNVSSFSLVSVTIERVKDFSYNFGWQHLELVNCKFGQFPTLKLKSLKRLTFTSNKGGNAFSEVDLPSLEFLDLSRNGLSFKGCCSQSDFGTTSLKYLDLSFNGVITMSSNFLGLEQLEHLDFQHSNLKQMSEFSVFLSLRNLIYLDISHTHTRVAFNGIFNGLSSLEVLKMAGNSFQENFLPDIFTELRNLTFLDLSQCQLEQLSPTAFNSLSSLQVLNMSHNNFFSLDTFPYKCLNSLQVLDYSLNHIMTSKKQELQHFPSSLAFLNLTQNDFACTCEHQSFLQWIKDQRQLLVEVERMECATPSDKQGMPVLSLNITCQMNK
# [25] = standard strain KCTC 2508, 1% peptone media, 16 h at 37 °C, three independent experiments in triplicate, SD 14.0%
# [26] = standard strain KCTC 3028, 1% peptone media, 16 h at 37 °C, three independent experiments in triplicate, SD 14.0%
# [27] = standard strain KCTC 1682, 2-fold dilutions, 1% peptone media, 2 × 10^6 CFU/ml suspension, 16 h at 37 °C, three independent experiments in triplicate, SD 14.0%
# [28] = average over the four Gram-negative standard strains
# [29] = average over the three Gram-positive standard strains
# [30] = standard strain KCTC 1637, 1% peptone media, 16 h at 37 °C, three independent experiments in triplicate, SD 14.0%
# [31] = standard strain KCTC 1926, 1% peptone media, 16 h at 37 °C, three independent experiments in triplicate, SD 14.0%
# [32] = standard strain KCTC 1621, 1% peptone media, 16 h at 37 °C, three independent experiments in triplicate, SD 14.0%
# [33] = standard strain KCTC 1917, 1% peptone media, 16 h at 37 °C, three independent experiments in triplicate, SD 14.0%
# [34] = 4% (v/v) hRBCs in PBS, 1 h at 37 °C, absorbance 405 nm, printed in both Gram-negative and Gram-positive sections
Molecule,"MIC, MDRAB 12035 [1] [µM]","MIC, MDRAB 12036 [2] [µM]","MIC, MDREC 1229 [5] [µM]","MIC, MDREC 1238 [6] [µM]","MIC, MDRPA 2002 [10] [µM]","MIC, MDRPA 2095 [11] [µM]","MIC, MDRST 8003 [13] [µM]","MIC, MDRST 8007 [14] [µM]","MIC, MRSA 3089 [19] [µM]","MIC, MRSA 3108 [20] [µM]","MIC, MRSA 3126 [21] [µM]","MIC, A. baumannii [3, 25] [µM]","MIC, B. subtilis [4, 26] [µM]","MIC, E. coli [7, 27] [µM]","Average MIC, Gram-negative [8, 28] [µM]","Average MIC, Gram-positive [9, 29] [µM]","MIC, P. aeruginosa [12, 30] [µM]","MIC, S. typhimurium [15, 31] [µM]","MIC, S. aureus [16, 32] [µM]",Kd [24] [nM],further results
"CC[C@H](C)[C@H](NC(=O)CNC(=O)[C@H](CCC(N)=O)NC(=O)[C@H](Cc1ccccc1)NC(=O)[C@@H](NC(=O)[C@H](CCCCN)NC(=O)[C@H](CCCCN)NC(=O)[C@H](CC(C)C)NC(=O)[C@H](C)NC(=O)[C@H](CC(N)=O)NC(=O)[C@H](CC(C)C)NC(=O)CN)C(C)C)C(=O)N[C@@H](Cc1c[nH]cn1)C(=O)N[C@@H](CCC(=O)O)C(=O)N[C@@H](C)C(=O)N[C@H](C(=O)N[C@@H](CCCCN)C(=O)N[C@@H](CC(C)C)C(=O)N[C@H](C(=O)N[C@@H](CC(N)=O)C(=O)N[C@@H](CC(N)=O)C(=O)N[C@@H](Cc1c[nH]cn1)C(=O)N[C@H](C(=O)N[C@@H](CCC(N)=O)C(=O)O)C(C)C)[C@@H](C)CC)[C@@H](C)CC [Ps, Pseudin-2] (H-GLNALKKVFQGIHEAIKLINNHVQ-OH)",1,2,2,1,2,2,4,2,4,4,4,,,,,,,,,,"MIC, A. baumannii ([3]; KCTC 2508, 16 h): 1 µM; MIC, B. subtilis ([4]; KCTC 3028, 16 h): 4 µM; MIC, E. coli ([7]; KCTC 1682, 16 h): 1 µM; Average MIC, Gram-negative ([8]; 16 h): 1.5 µM; Average MIC, Gram-positive ([9]; 16 h): 4 µM; MIC, P. aeruginosa ([12]; KCTC 1637, 16 h): 2 µM; MIC, S. typhimurium ([15]; KCTC 1926, 16 h): 2 µM; MIC, S. aureus ([16]; KCTC 1621, 16 h): 4 µM; MIC, S. epidermidis ([17]; KCTC 1917, 16 h): 4 µM; MHC (minimal peptide concentration that produces haemolysis) ([18]; red cells of human, 1 h): 25 µM; haemolysis at 100 μM ([18]; red cells of human, 1 h, 100): approximately 23%; survival of RAW264.7 cells [22]: 56%; survival of dendritic cells [23]: 44%"
CC[C@H](C)[C@H](NC(=O)[C@H](C)NC(=O)[C@H](CCC(=O)O)NC(=O)[C@H](Cc1c[nH]cn1)NC(=O)[C@@H](NC(=O)[C@@H]1CCCN1C(=O)[C@H](CCC(N)=O)NC(=O)[C@H](Cc1ccccc1)NC(=O)[C@@H](NC(=O)[C@H](CCCCN)NC(=O)[C@H](CCCCN)NC(=O)[C@H](CC(C)C)NC(=O)[C@H](C)NC(=O)[C@H](CC(N)=O)NC(=O)[C@H](CC(C)C)NC(=O)CN)C(C)C)[C@@H](C)CC)C(=O)N[C@@H](CCCCN)C(=O)N[C@@H](CCCCN)C(=O)N[C@H](C(=O)N[C@@H](CC(N)=O)C(=O)N[C@@H](CC(N)=O)C(=O)N[C@@H](Cc1c[nH]cn1)C(=O)N[C@H](C(=O)N[C@@H](CCC(N)=O)C(=O)O)C(C)C)[C@@H](C)CC [Ps-K18-P] (H-GLNALKKVFQPIHEAIKKINNHVQ-OH),16,16,32,16,16,16,16,16,64,64,>64,16,64,16,14,64,8,16,64,,"MIC, S. epidermidis [17, 33]: 64 µM; haemolysis at 400 μM ([18]; 1 h at 37 °C): 0.1%; MHC (minimal peptide concentration that produces haemolysis) [18, 34]: 400 µM"
CC[C@H](C)[C@H](NC(=O)[C@H](C)NC(=O)[C@H](CCCCN)NC(=O)[C@H](Cc1c[nH]cn1)NC(=O)[C@@H](NC(=O)[C@@H]1CCCN1C(=O)[C@H](CCC(N)=O)NC(=O)[C@H](Cc1ccccc1)NC(=O)[C@@H](NC(=O)[C@H](CCCCN)NC(=O)[C@H](CCCCN)NC(=O)[C@H](CC(C)C)NC(=O)[C@H](C)NC(=O)[C@H](CC(N)=O)NC(=O)[C@H](CC(C)C)NC(=O)CN)C(C)C)[C@@H](C)CC)C(=O)N[C@@H](CCCCN)C(=O)N[C@@H](CCCCN)C(=O)N[C@H](C(=O)N[C@@H](CC(N)=O)C(=O)N[C@@H](CC(N)=O)C(=O)N[C@@H](Cc1c[nH]cn1)C(=O)N[C@H](C(=O)N[C@@H](CCC(N)=O)C(=O)O)C(C)C)[C@@H](C)CC [Ps-K14-K18-P] (H-GLNALKKVFQPIHKAIKKINNHVQ-OH),16,8,8,8,16,16,16,16,32,32,64,8,32,4,7,42.67,8,8,32,,"MIC, S. epidermidis [17, 33]: 64 µM; haemolysis at 400 μM ([18]; 1 h at 37 °C): 0.3%; MHC (minimal peptide concentration that produces haemolysis) [18, 34]: 400 µM"
B1,,,,,,,,,,,,,,,,,,,,1500,
B2,,,,,,,,,,,,,,,,,,,,800,
B3,,,,,,,,,,,,,,,,,,,,6900,
